The target in test [1] is PI3Kα[WT]/[E542K]/[E545K]/[H1047R]/PI3Kβ/γ/δ. The test is described as follows: PI3K enzyme activity assay (ADP-Glo). To be noted: PI3K kinase reaction, isoform not given. In kind it is biochemical. Here is the method:
Experimental Example 1: PI3Kα[WT]/[E542K]/[E545K]/[H1047R]/PI3Kβ/γ/δ Enzyme Activity Assay
PI3Kα[WT], PI3Kα[E542K], PI3Kα[E545K], PI3Kα[H1047R], PI3Kβ, PI3Kγ and PI3Kδ kinase reaction was performed in 384-well plate (PerkinElmer, #6008280), with a reaction system of 4 μL. PI3Kα[WT] enzyme solution (Promega, #V1721) or PI3Kα[E542K] enzyme solution (CarnaBio, #11-413-20N) or PI3Kα[E545K] enzyme solution (CarnaBio, #11-414-20N) or PI3Kα[H1047R] enzyme solution (Promega, #V1741) or PI3Kβ enzyme solution (Promega, #V1751) or PI3Kγ enzyme solution (ThermoFisher, #PV4786) or PI3Kδ enzyme solution (ThermoFisher, #PV6451) were added to 384-well plate, and then gradiently diluted compounds were added (starting at a final concentration of 10 μM, 3-fold dilution, 10 doses), followed by adding PIP2: 3PS (Promega, #V1701) and ATP solution (Promega, #V915B) to the plate. After incubation at 25° C. for 1 h, ADP-Glo reagent buffer (Promega, #V9102) was added to each well. The plate was sealed and incubated at 25° C. for 40 min, and then 10 μL of ADP-Glo detection buffer (Promega, #V9102) was added to each well. After incubating at 25° C. for 40 min, the chemiluminescence value was read using an instrument.
The experimental results are shown in the ADP Glo IC50 column in Table 2.

Another test has as its system MCF-10A cells. Put plainly: Inhibitory effects on the proliferation of MCF-10A cells (CCK8). In kind it is cell-based. Particulars: 6 days. Here is the method:
Experimental Example 2: Experiment of Inhibitory Effects on the Proliferation of MCF-10A Cells
MCF-10A cells (Cobioer Bio. #CBP60419MCF) were diluted with complete medium (Cobioer Bio. #CBP60419), seeded in 96-well plate (Corning #3599) at 500 cells/well, and then cultured for 24 h. Then, gradiently diluted compounds were added (starting at a final concentration of 10 μM, 3-fold dilution, 9 dose concentrations), and the final volume was adjusted to 100 μL/well. The plate was incubated at 37° C. under 5% CO2 for 6 days. After the cultivation was completed, CCK8 reagent (Signalway Antibody Bio. #CP002) was added at 10 μL/well, and then the plate was further incubated at 37° C. under 5% CO2 for 2-3 hours. The OD450 nm value was obtained by a microplate reader.
The results are shown in the MCF-OA IC50 column in Table 2.

Another test deals with T47D cells. Put plainly: Inhibitory effects on the proliferation of T47D cells (CellTiter-Glo). Format: cell-based. Particulars: 7 days. On the procedure: Experimental Example 3: Experiment of Inhibitory Effects on the Proliferation of T47D Cells
T47D cells (ATCC. #HTB-133) were diluted with RPMI 1640 (Gibco #22400-089) containing 10% FBS (Hyclone #SH30084.03), seeded in 96-well plate (Biosharp #BS-MP-96W) at 1000 cells/well, and then cultured for 24 h. Then, gradiently diluted compounds were added (starting at a final concentration of 10 μM, 3-fold dilution, 9 dose concentrations), and the final volume was adjusted to 150 μL/well. The plate was incubated at 37° C. under […] for 7 days. After the cultivation was completed, CellTiter-Glo reagent (Promega #G7573) was added at 75 μL/well, and then the plate was further incubated at 25° C. for 10 min. After that, the chemiluminescence value was read using an instrument.
The results are shown in the T47D IC50 column in Table 2.

This is an account of results in patent publication US20260015341A1, “PI3K INHIBITOR, PREPARATION METHOD THEREFOR, AND USE THEREOF” (HINOVA PHARMACEUTICALS INC., priority 2022, published 2026).

For `C[C@@H](Nc1ccc(F)cc1C(=O)O)c1cc(F)cc2c(=O)n(C)c(-c3ccc(F)cn3)nc12` [Compound 77], the IC50 in test [1] is less than 1 µM; with MCF-10A cells (Homo sapiens, 144 h) it was more than 5 µM; in the test on T47D cells (Homo sapiens, 168 h) it was less than 1 µM.

As for `Cc1cc([C@@H](C)Nc2ccccc2C(=O)O)c2nc(N3CCC(C)(C)CC3)n(C)c(=O)c2c1` [Compound 6, (R)-2-((1-(2-(4,4-dimethylpiperidin-1-yl)-3,6-dimethyl-4-oxo-3,4-dihydroquinazolin-8-yl)ethyl)amino)benzoic Acid], the IC50 is less than 1 µM in test [1] and less than 1 µM in the test on T47D cells (Homo sapiens, 168 h).

Take `Cc1cc([C@@H](C)Nc2ccccc2C(=O)O)c2nc(-c3cc(F)ccc3F)n(C)c(=O)c2c1` [Compound 59]: the IC50 in test [1] is less than 1 µM; in the test with MCF-10A cells (Homo sapiens, 144 h), more than 5 µM; in the test with T47D cells (Homo sapiens, 168 h) it was less than 1 µM.

For `Cc1cc([C@@H](C)Nc2ccc(Cl)nc2C(=O)O)c2oc(-c3ccc4c(c3)OC(F)(F)O4)cc(=O)c2c1` [Compound 46], the IC50 is less than 1 µM in test [1]; more than 5 µM in the test with MCF-10A cells (Homo sapiens, 144 h); less than 1 µM in the test with T47D cells (Homo sapiens, 168 h).

Regarding `Cc1cc([C@@H](C)NC2CCC(=O)NC2=O)c2oc(-c3ccc(F)cc3F)cc(=O)c2c1` (some centres unmarked) [Compound 117], the IC50 in test [1] is more than 5 µM; in the test on MCF-10A cells (Homo sapiens, 144 h), more than 5 µM; in the test with T47D cells (Homo sapiens, 168 h), more than 5 µM.

With `Cc1cc([C@@H](C)Nc2cccc(F)c2C(=O)O)c2nc(-c3ccc(F)cn3)n(C)c(=O)c2c1` [Compound 70], the IC50 was less than 1 µM in test [1]; more than 5 µM in the test on MCF-10A cells (Homo sapiens, 144 h); 1 to 5 µM in the test with T47D cells (Homo sapiens, 168 h).

Take `COC(=O)c1nc(Cl)ccc1N[C@H](C)c1cc(C)cc2c(=O)n(C)c(-c3ccncc3)nc12` [Compound 103]: the IC50 was less than 1 µM in test [1]; more than 5 µM in the test with MCF-10A cells (Homo sapiens, 144 h); less than 1 µM in the test on T47D cells (Homo sapiens, 168 h).

As to `Cc1cc([C@@H](C)Nc2ccccc2NS(C)(=O)=O)c2oc(-c3ccc(F)cc3F)cc(=O)c2c1` [Compound 28], the IC50 in test [1] was 1 to 5 µM; with MCF-10A cells (Homo sapiens, 144 h), more than 5 µM; in the test on T47D cells (Homo sapiens, 168 h) it was less than 1 µM.

Turning to `Cc1cc([C@@H](C)Nc2ccccc2C(=O)O)c2nc(-c3ccc(F)cc3)n(C)c(=O)c2c1` [Compound 61], the IC50 in test [1] is less than 1 µM; with MCF-10A cells (Homo sapiens, 144 h), more than 5 µM; in the test with T47D cells (Homo sapiens, 168 h), less than 1 µM.

Take `Cc1cc([C@@H](C)Nc2ccccc2C(=O)O)c2[nH]c(-c3ccc(F)cn3)[n+](C)c(=O)c2c1` [Compound 69]: the IC50 in test [1] was less than 1 µM; in the test on MCF-10A cells it was more than 5 µM; in the test on T47D cells it was less than 1 µM.

In the case of `Cc1cc([C@@H](C)Nc2ccc(Cl)nc2C(=O)O)c2nc(-c3c(C)nn(C)c3C)n(C)c(=O)c2c1` [Compound 53], the IC50 in test [1] was less than 1 µM; with MCF-10A cells (Homo sapiens, 144 h), 1 to 5 µM; with T47D cells (Homo sapiens, 168 h) it was less than 1 µM.

For the compound `Cc1cc([C@@H](C)Nc2ccsc2C(=O)O)c2nc(-c3ccc(F)cn3)n(C)c(=O)c2c1` [Compound 82], the IC50 in test [1] is less than 1 µM; in the test with MCF-10A cells (Homo sapiens, 144 h), more than 5 µM; in the test on T47D cells (Homo sapiens, 168 h), more than 5 µM.

For `Cc1cc([C@@H](C)Nc2ccccc2C(=O)O)c2nc(-c3ccc(F)cc3F)cc(=O)n2c1` [Compound 41, (R)-2-((1-(2-(2,4-difluorophenyl)-7-methyl-4-oxo-4H-pyrido[1,2-a]pyrimidin-9-yl)ethyl)amino)benzoic Acid], the IC50 is less than 1 µM in test [1]; more than 5 µM in the test with MCF-10A cells (Homo sapiens, 144 h); 1 to 5 µM in the test on T47D cells (Homo sapiens, 168 h).

For `Cc1cc([C@@H](C)Nc2ccc[nH]c2=O)c2oc(-c3ccc(F)cc3F)cc(=O)c2c1` [Compound 62], the IC50 in test [1] is less than 1 µM; in the test with MCF-10A cells (Homo sapiens, 144 h) it was more than 5 µM; with T47D cells (Homo sapiens, 168 h) it was 1 to 5 µM.

`C[C@@H](Nc1cccc(F)c1C(=O)O)c1cc(F)cc2c(=O)n(C)c(-c3ccc(F)cn3)nc12` [Compound 73]: the IC50 in test [1] is less than 1 µM; with MCF-10A cells (Homo sapiens, 144 h) it was more than 5 µM; in the test with T47D cells (Homo sapiens, 168 h), 1 to 5 µM.

For the compound `C[C@@H](Nc1ccc(Cl)nc1C(=O)O)c1cc(F)cc2c(=O)n(C)c(-c3ncccn3)nc12` [Compound 100], the IC50 in test [1] was less than 1 µM; in the test on MCF-10A cells (Homo sapiens, 144 h), more than 5 µM; in the test with T47D cells (Homo sapiens, 168 h) it was less than 1 µM.

As to `Cc1cc([C@@H](C)Nc2ccccc2C(O)C(F)(F)F)c2oc(-c3ccc(F)cc3F)cc(=O)c2c1` (stereo partly drawn) [Compound 57, 2-(2,4-difluorophenyl)-6-methyl-8-((1R)-1-((2-(2,2,2-trifluoro-1-hydroxyethyl)phenyl)amino)ethyl)-4H-chromen-4-one], the IC50 in test [1] was less than 1 µM; with MCF-10A cells (Homo sapiens, 144 h) it was more than 5 µM; in the test with T47D cells (Homo sapiens, 168 h), more than 5 µM.

Turning to `Cc1cc([C@@H](C)Nc2cccc(F)c2C(=O)O)c2nc(-c3ccc(F)cc3)n(C)c(=O)c2c1` [Compound 72], the IC50 is less than 1 µM in test [1]; more than 5 µM with MCF-10A cells (Homo sapiens, 144 h); 1 to 5 µM in the test on T47D cells (Homo sapiens, 168 h).

On to `Cc1cc([C@@H](C)Nc2ccccc2C(=O)O)c2oc(C3CCC(F)(F)CC3)cc(=O)c2c1` [Compound 58, (R)-2-((1-(2-(4,4-difluorocyclohexyl)-6-methyl-4-oxo-4H-chromen-8-yl)ethyl)amino)benzoic Acid], for which the IC50 is less than 1 µM in test [1]; more than 5 µM in the test on MCF-10A cells (Homo sapiens, 144 h); less than 1 µM in the test on T47D cells (Homo sapiens, 168 h).

In the case of `Cc1cc([C@@H](C)Nc2ccccc2C(=O)O)c2nc(-c3c(F)cccc3F)n(C)c(=O)c2c1` [Compound 37, (R)-2-((1-(2-(2,6-difluorophenyl)-3,6-dimethyl-4-oxo-3,4-dihydroquinazolin-8-yl)ethyl)amino)benzoic Acid], in test [1], the IC50 is less than 1 µM.

`Cc1ccc(N[C@H](C)c2cc(C)cc3c(=O)n(C)c(-c4c(F)cccc4F)nc23)c(C(=O)O)c1` [Compound 38] registered an IC50 in test [1] of less than 1 µM.

As to `[2H]C([2H])([2H])NC(=O)c1ncccc1N[C@H](C)c1cc(C)cc2c(=O)cc(-c3ccc(F)cc3F)oc12` [Compound 48, (R)-3-((1-(2-(2,4-difluorophenyl)-6-methyl-4-oxo-4H-chromen-8-yl)ethyl)amino)-N-(methyl-d3)picolinamide], the IC50 was 1 to 5 µM in test [1]; more than 5 µM in the test with MCF-10A cells (Homo sapiens, 144 h); 1 to 5 µM in the test on T47D cells (Homo sapiens, 168 h).

The compound `Cc1cc([C@@H](C)Nc2ccnn2C)c2oc(-c3ccc(F)cc3F)cc(=O)c2c1` [Compound 42] registered an IC50 in test [1] of 1 to 5 µM.

Take `Cc1cc([C@@H](C)Nc2ccccc2C(=O)O)c2nc(-c3ccc(F)cc3F)n(C)c(=O)c2c1` [Compound 45]: the IC50 is less than 1 µM in test [1]; more than 5 µM with MCF-10A cells (Homo sapiens, 144 h); less than 1 µM in the test on T47D cells (Homo sapiens, 168 h).

As for `Cc1cc([C@@H](C)Nc2ccc(Cl)nc2C(=O)O)c2nc(-c3cc(F)ccc3F)n(C)c(=O)c2c1` [Compound 60], the IC50 in test [1] is less than 1 µM; in the test with MCF-10A cells (Homo sapiens, 144 h) it was more than 5 µM; in the test with T47D cells (Homo sapiens, 168 h), less than 1 µM.

Consider `Cc1cc([C@@H](C)Nc2cccc3c2C(=O)NC3=O)c2oc(-c3ccc(F)cc3F)cc(=O)c2c1` [Compound 55], for which the IC50 was 1 to 5 µM in test [1]; more than 5 µM with MCF-10A cells (Homo sapiens, 144 h); more than 5 µM with T47D cells (Homo sapiens, 168 h).

As to `C[C@@H](Nc1ccc(Cl)nc1C(=O)O)c1cc(F)cc2c(=O)n(C)c(-c3ncc(Cl)cn3)nc12` [Compound 99], the IC50 in test [1] is less than 1 µM; in the test on MCF-10A cells (Homo sapiens, 144 h), more than 5 µM; in the test with T47D cells (Homo sapiens, 168 h) it was less than 1 µM.

`Cc1cc([C@@H](C)Nc2ccc(Cl)nc2C(=O)O)c2nc(-c3ncc(Cl)cn3)n(C)c(=O)c2c1` [Compound 96] gave an IC50 in test [1] of less than 1 µM.

Consider `Cc1cc([C@@H](C)Nc2ccccc2C(=O)O)c2nc(N3CCC(C)(C)CC3)[nH]c(=O)c2c1` [Compound 4, (R)-2-((1-(2-(4,4-dimethylpiperidin-1-yl)-6-dimethyl-4-oxo-3,4-dihydroquinazolin-8-yl)ethyl)amino)benzoic Acid], for which the IC50 in test [1] was in the range of 1 to 5 µM.

`Cc1cc([C@@H](C)N[S@+]([O-])C(C)(C)C)c2nc(N3CCC(C)(C)CC3)n(C)c(=O)c2c1` [Compound 5] yielded an IC50 in test [1] of 1 to 5 µM.
